Data set [1] deals with lung cancer. Put plainly: Phase I clinical study of intermittent TNP-470 combined with paclitaxel (Example 1), lung cancer patients. The data set is classed as in vivo, human. The text has this:
(§1) TNP-470 administrations were repeated up to three times per week.
(§2) In the table, "response" refers to the percentage of patients whose tumor shrank by more than fifty percent; and "time to progression" refers to the median value of the length of time between the first dose of drug and observation that the tumor has grown by more than fifty percent, or that new tumors have appeared. Patients who stop taking the drug for other reasons are considered lost to follow-up for "time to progression" calculations. "Survival" in the table is a median value.

The test system of data set [2] is advanced or metastatic cancer. Briefly: Phase I clinical study of intermittent TNP-470 combined with paclitaxel (Example 1), all patients. It is filed as in vivo, human. The settings on record: TNP-470 20-60 mg/m^2 + 135-225 mg/m^2 paclitaxel; 32 patients (different cancers).
From the text: as §1, §2

The subject of data set [3] is non-small cell lung cancer. Put plainly: Phase I clinical study of intermittent TNP-470 with paclitaxel and carboplatin at a dose of AUC 5 (Example 2). The data set is classed as in vivo, human.
The subject of data set [4] is advanced or metastatic cancer. Briefly: Phase I clinical study of intermittent TNP-470 with paclitaxel and carboplatin at a dose of AUC 6 (Example 2). The procedure: Doses of TNP-470 and paclitaxel were modified as described below.
Twenty adult patients with advanced or metastatic cancer, were treated with TNP-470 (synthesized according to the procedure of U.S. Patent No. 5,180,738) in a liquid cyclodextrin-containing formulation using repeated administrations of a high dose (60 mg/m^2) given over one hour, combined with 225 mg/m^2 paclitaxel given over three hours. Carboplatin was given at doses calculated to provide an "area-under-the-curve (AUC)" exposure of 5 or 6 mg/mL/min (hereinafter referred to as "a dose of AUC 5" or "a dose of AUC 6"), according to the formula Dose (mg) = AUC x (glomerular filtration rate + 25) [formula] as described in the package insert for carboplatin. Glomerular filtration rate was estimated by creatinine clearance, either measured or calculated from the patient's age, weight, gender and serum creatinine according to the Cockcroft-Gault equation Cr CL = ((140-age) x weight (kg)/72 x serum creatinine) x 1.0 if male or 0.85 if female [formula]
In this study, paclitaxel was administered first, followed one hour later by TNP-470, then finally by the carboplatin. TNP-470 administrations were repeated up to three thimes per week. Paclitaxel and carboplatin administrations were repeated every three weeks as the patients' condition permitted. Anti-emetic therapy and prophylaxis against paclitaxel hypersensitivity were administered in accordance with the paclitaxel package insert on days when paclitaxel and carboplatin were administered.
The patients' tumors were measured at the start of the study, after six to eight weeks of therapy, and at two-month intervals thereafter. Patients continued to receive TNP-470 until tumors grew by 50% or they experienced adverse events.
Three patients, all with non-small cell lung cancer, received TNP-470 in combination with paclitaxel and carboplatin (a dose of AUC 5).

The next data set deals with metastatic cancer. Briefly: Phase I clinical study of continuously infused TNP-470 with paclitaxel and carboplatin (Example 3). The settings on record: TNP-470 2.5-10 mg/m^2 continuous infusion with or without 60 on Day 1 + 200-225 mg/m^2 paclitaxel; carboplatin AUC 5-6; 20 patients (different cancers). It is filed as in vivo, human. The procedure: Twenty adult patients with metastatic cancer, including patients with lung cancer, were treated with TNP-470, using repeated continuous administrations of low doses (2.5-10 mg/m^2 over five days in combination with paclitaxel at doses of 200-225 mg/m^2 and carboplatin at a dose of AUC 5 or AUC 6 (as explained in Example 2 above) reported in row 7 of Table 1 above.
In this study, paclitaxel was administered first, followed by the carboplatin, then by TNP-470 administered intravenously via portable continuous infusion syringe pump (available from Sims-Deltec) at a dose of 2.5 -10 mg/m^2 for five days (115-120 hours). The five-day TNP-470 infusion was repeated every week.
In an ongoing cohort of this study, in addition to the described therapy, nine patients received 60 mg/m^2 TNP-470 as a one-hour intravenous infusion after infusion of paclitaxel and prior to infusion of carboplatin. This high-dose one-hour TNP-470 infusion was administered only when paclitaxel and carboplatin were administered.

Data set [5] concerns lung cancer. The settings on record: no TNP-470, lung cancer historical data, cited from earlier work.
The mark [6] stands for this setting: TNP-470 20-60 mg/m^2 + 135-225 mg/m^2 paclitaxel, 15 patients (lung cancer only), median.
The mark [7] stands for this setting: TNP-470 60 mg/m^2 + 225 mg/m^2 paclitaxel, carboplatin AUC 6, 14 patients (different cancers).

Where two headings read alike, the source gives them in different places.

Consider `CO[C@@H]1[C@H](OC(=O)NC(=O)CCl)CC[C@]2(CO2)[C@H]1[C@@]1(C)O[C@@H]1CC=C(C)C` [TNP-470, 6-O-(N-chloroacetylcarbamoyl) fumagillol], for which the “Survival (months)” value was 14.3 months with lung cancer [1] (setting [6]); “often, sixteen and more than twenty-two” in data set [3] (TNP-470 60 mg/m^2 + 225 mg/m^2 paclitaxel, carboplatin AUC 5, 3 patients (lung cancer only), individual values); “regimen not tolerated” in data set [4] (setting [7]). Moreover, the “Time to Progression (months)” value in the data set on lung cancer [1] (setting [6]) is on record as 5.4 months; in data set [4] (setting [7]), “regimen not tolerated”. Further, the “Responses (percentage)” value was determined as 33 percentage in the data set on lung cancer [1] (TNP-470 20-60 mg/m^2 i.v. up to three times per week + 135-225 mg/m^2 paclitaxel every three weeks, 15 patients (lung cancer only)); 28 percentage in data set [2]; 100 percentage in data set [3] (TNP-470 60 mg/m^2 + 225 mg/m^2 paclitaxel, carboplatin AUC 5, 3 patients (lung cancer only)); 0 percentage in data set [4] (TNP-470 60 mg/m^2 + 225 mg/m^2 paclitaxel, carboplatin AUC 6, 14 patients (different cancers), prior chemotherapy, insufficient therapy to evaluate effectiveness); 20 percentage in the data set with metastatic cancer. The “increase in survival over that previously reported for patients treated with paclitaxel alone” value in the data set with lung cancer [1] (TNP-470 + paclitaxel, patients with lung cancer, 14.3 months vs. 8 months) is recorded as “greater than 70%”. Moreover, the “tumor response in words” value in data set [3] (TNP-470 in combination with paclitaxel and carboplatin (a dose of AUC 5), three patients, all with non-small cell lung cancer) was “All three had partial responses”. Further, the tumor shrinkage result in data set [3] (TNP-470 with paclitaxel and carboplatin, patients with non-small-cell lung cancer) is recorded as “experienced tumor shrinkage”. Besides, in data set [4] (TNP-470 60 mg/m^2 + 225 mg/m^2 paclitaxel + carboplatin at a dose of AUC 6, variety of different cancers, prior chemotherapy), the “tolerability of the combined therapy” value is given as “tolerated the combined therapy poorly beyond two cycles of therapy”.

On to `CC(=O)O[C@H]1C(=O)[C@@]2(C)[C@H]([C@H](OC(=O)c3ccccc3)[C@]3(O)C[C@H](OC(=O)[C@H](O)[C@@H](NC(=O)c4ccccc4)c4ccccc4)C(C)=C1C3(C)C)[C@]1(OC(C)=O)CO[C@@H]1C[C@@H]2O` [paclitaxel], for which, in the data set on lung cancer [5] (median), the “Survival (months)” value was 6-9 months and the “Time to Progression (months)” value is recorded as “∼3 months”. In the data set with lung cancer [5] (patients whose tumor shrank by more than fifty percent), the “Responses (percentage)” value is given as 20-30 percentage.
